Six molecules from patent US20120220461A1, “CRYSTAL FORMS OF SULFONYLUREA COMPOUND AND METHOD FOR PRODUCING THE SAME” (NISSAN CHEMICAL INDUSTRIES, LTD., priority 2009, published 2012) can be followed below.

This data set can be described thus: Change of crystal form by heating, friction or suspension in a solvent. It counts as physicochemical. The text has this: In the present invention, for the discrimination of the crystal form, a powder X-ray diffraction measurement, a differential thermal analysis, ^13C CP/TOSS NMR, a Raman spectroscopy, and the like are effective, however, the method for the discrimination is not limited to these measurement methods.
• Apparatus: MXLabo (manufactured by Mac Science Corporation (present: Bruker AXS, Inc.)) • Ray source: Cu • Wavelength: 1.54056A • Goniometer: vertical-type goniometer • Tube voltage: 40.0 kV • Tube current: 30 mA • Measuring method: continuous method • Data range: 3.0400 to 40.0000 deg • Scanning axis: 2θ/θ • Sampling interval: 0.0400 deg • Scanning rate: 3.600 deg/min. • Emission slit: 1.00 deg • Scattering slit: 1.00 deg • Receiving slit: 0.15 mm • RSM: 0.80 mm
• Apparatus: TG 8120 (manufactured by Rigaku Corporation) • Temperature elevation: 20° C. to 300° C. at an elevation rate of 5° C./min • Atmosphere: Air • Reference: Al2O3 • Vessel: Al vessel • Sampling: 1 sec

For `COc1cc(OC)nc(NC(=O)NS(=O)(=O)c2c(C3=NOCC(C)O3)c(Cl)nn2C)n1` (stereo not shown) [crystal form A, 3-chloro-N-(4,6-dimethoxypyrimidine-2-ylcarbamoyl)-1-methyl-4-(5-methyl-5,6-dihydro-1,4,2-dioxazine-3-yl)-1H-pyrazole-5-sulfonamide], the “change of crystal form by heating or friction” value (“change … by heating or friction” for short) is “not observed”. Regarding `COc1cc(OC)nc(NC(=O)NS(=O)(=O)c2c(C3=NOCC(C)O3)c(Cl)nn2C)n1` (stereo not shown) [crystal form B, 3-chloro-N-(4,6-dimethoxypyrimidine-2-ylcarbamoyl)-1-methyl-4-(5-methyl-5,6-dihydro-1,4,2-dioxazine-3-yl)-1H-pyrazole-5-sulfonamide], the “change of crystal form by heating” value is given as “not observed”. Moreover, under “suspended in a solvent, stirred”, the “change of crystal form on suspending in a solvent and stirring” value is given as “transits to be converted into the crystal form A”.

Take `COc1cc(OC)nc(NC(=O)NS(=O)(=O)c2c(C3=NOCC(C)O3)c(Cl)nn2C)n1` (stereo not shown) [crystal form C, 3-chloro-N-(4,6-dimethoxypyrimidine-2-ylcarbamoyl)-1-methyl-4-(5-methyl-5,6-dihydro-1,4,2-dioxazine-3-yl)-1H-pyrazole-5-sulfonamide]: the “change … by heating or friction” value was “transits to the crystal form A or B”.

Take `COc1cc(OC)nc(NC(=O)NS(=O)(=O)c2c(C3=NOCC(C)O3)c(Cl)nn2C)n1` (stereo not shown) [crystal form D, 3-chloro-N-(4,6-dimethoxypyrimidine-2-ylcarbamoyl)-1-methyl-4-(5-methyl-5,6-dihydro-1,4,2-dioxazine-3-yl)-1H-pyrazole-5-sulfonamide]: the “change of crystal form by heating” value is reported as “transits to the crystal form A”. As for `COc1cc(OC)nc(NC(=O)NS(=O)(=O)c2c(C3=NOCC(C)O3)c(Cl)nn2C)n1` (stereo not shown) [crystal form E, 3-chloro-N-(4,6-dimethoxypyrimidine-2-ylearbamoyl)-1-methyl-4-(5-methyl-5,6-dihydro-1,4,2-dioxazine-3-yl)-1H-pyrazole-5-sulfonamide], the “change … by heating or friction” value is on record as “transits to the crystal form A”. On the same count and under the same terms, the result for `COc1cc(OC)nc(NC(=O)NS(=O)(=O)c2c(C3=NOCC(C)O3)c(Cl)nn2C)n1` (stereo not shown) [crystal form F, 3-chloro-N-(4,6-dimethoxypyrimidine-2-ylcarbamoyl)-1-methyl-4-(5-methyl-5,6-dihydro-1,4,2-dioxazine-3-yl)-1H-pyrazole-5-sulfonamide] reads “transits to the crystal form A”.
